US20040106802A1, “Novel compounds and therapeutic uses thereof” (TORRENT PHARMACEUTICALS LTD., priority 2002, published 2004)
Counter-ions that a name gives are not always drawn.

Each compound was assayed against T1, Porcine DPP-IV (Sus scrofa, UniProt P22411) (assay: Assay of DPP-IV enzyme inhibitory activity (spectrophotometric, Gly-Pro-pNA cleavage)). Details: Porcine DPP-IV, Gly-Pro-pNA substrate, 30° C.; mean ± SD of three experiments except compound Nos. 133 & 139; read-out: IC50 (μM) Mean ± SD, inhibitory activity on DPP-IV enzyme activity.
T1 construct: purchased Sigma-Aldrich Germany
Type: biochemical
Description: Assay of DPP-IV Enzyme Inhibitory Activity.
The assay method is a modified method (as described by Welch et al, 1998) based on spectrophotometric determination of the product formed by penultimate proline cleaving activity of the enzyme.
Assay protocol involves incubation of the enzyme dipeptidyl peptidase IV with the test substance at 30° C. for 30 min followed by addition of this reaction mixture to the substrate Gly-Pro-pNA that was equilibrated at 30° C. for 2 min. The enzyme cleaves the substrate at penultimate proline and releases p-nitroanilide, the optical density of which is measured at 385 nm. The formation of p-nitroanilide will be reduced in the presence of inhibitor. […] The activity of molecule is expressed in terms of % inhibition. At least three different concentrations were tried out for each of the test substances. The percentage inhibitions for each of the concentrations were plotted and an IC50 of the test compound was worked out. The enzyme inhibitory activity of different test compounds were compared based on the IC50 values.
The percentage inhibition % I, is calculated using the formula:
% I=[(1−vi/v0)]*100 where vi and v0 are the Vmax values with and without the test substance, respectively.
Substrate solution: 0.5 mM in 45 mM phosphate buffer
Substrate used: Gly-Pro-p-nitroanilide (Source: Sigma-Aldrich Co. Germany)
3.288 mg substrate in 1 ml 45 mM phosphate buffer was prepared as stock solution. 0.25 ml of this stock solution was diluted to 5 ml to get 0.5 mM substrate solution (90 μl to be added in each well). The stock solution of the substrate was used within three days of preparation.
Enzyme solution: Porcine DPP-IV (Sigma-Aldrich Germany) was used throughout the study. 0.4 mU in 80 μl of Tris. HCl buffer was prepared. Fresh solutions were prepared everyday for the assays.
Various concentrations of inhibitor were used: 0.391 μM, 0.781 μM, and 3.125 μM. Solutions of inhibitor were prepared and used on the same day.
280 μl of enzyme solution (0.4-mU/80 μl in Tris HCl buffer) was added to the eppendorf containing 70 μl solution of inhibitor or vehicle and mixed. This reaction mixture was incubated for 30 min at 30° C. The 96 well plate containing substrate solution was thermally equilibrated in the spectrophotometer for 2 min at 30° C. Later 100 μl of the enzyme-inhibitor pre-incubation solution was added to respective wells in a 96 well plate. Each concentration of the inhibitor was tested in triplicates.
The rate of change in UV absorbance (in presence of various concentrations of the inhibitor) was measured at 385 nm, with respect to wells containing only 0.5 mM substrate in 45 mM phosphate buffer as blank at every 10 min for 2 hours after adding enzyme-inhibitor mixture to wells containing substrate solution.

T1 sequence (P22411 whole entry): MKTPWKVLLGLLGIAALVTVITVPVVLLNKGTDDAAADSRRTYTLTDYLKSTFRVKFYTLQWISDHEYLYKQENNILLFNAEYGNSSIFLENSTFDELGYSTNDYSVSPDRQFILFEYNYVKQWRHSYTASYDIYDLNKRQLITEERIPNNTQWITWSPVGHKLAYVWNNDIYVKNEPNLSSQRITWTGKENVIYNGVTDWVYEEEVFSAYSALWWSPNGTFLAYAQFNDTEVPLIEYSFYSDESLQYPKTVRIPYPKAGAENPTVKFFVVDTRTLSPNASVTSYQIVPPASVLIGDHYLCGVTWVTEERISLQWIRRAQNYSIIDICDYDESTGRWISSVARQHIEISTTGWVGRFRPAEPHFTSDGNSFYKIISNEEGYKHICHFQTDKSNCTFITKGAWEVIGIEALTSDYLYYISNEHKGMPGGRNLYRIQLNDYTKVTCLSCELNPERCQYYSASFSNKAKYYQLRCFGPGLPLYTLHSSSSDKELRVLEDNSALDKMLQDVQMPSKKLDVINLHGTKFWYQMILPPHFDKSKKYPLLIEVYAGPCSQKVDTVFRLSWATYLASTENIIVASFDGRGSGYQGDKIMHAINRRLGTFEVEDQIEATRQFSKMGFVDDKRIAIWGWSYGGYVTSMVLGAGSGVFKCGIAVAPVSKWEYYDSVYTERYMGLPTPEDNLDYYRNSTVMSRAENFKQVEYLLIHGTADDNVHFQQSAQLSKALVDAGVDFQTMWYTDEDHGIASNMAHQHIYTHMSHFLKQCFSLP

IC50	SMILES
0.73 ± 0.02 µM	N#CC1CSCN1C(=O)CN(N)C12CCC(CC1)C2 (stereo not drawn) [Compound No. 63, 3-[1-Oxo-2-(1-(1-norcamphoranyl) hydrazino)]ethyl-4-cyanothiazolidine trifluoroacetate]
78.6 ± 4.58 µM	N#CC1CSCN1C(=O)CN(NC(=O)NCCc1ccccn1)C(=O)NCCc1ccccn1 (stereo not drawn) [Compound No. 46, 3-[1-Oxo-2-(1,2-bis-(2-(2-pyridyl)ethylaminocarbonyl)hydrazino)]ethyl-4-cyano thiazolidine bis trifluoroacetate]
45.2 ± 1.21 µM	N#CC1CCCN1C(=O)CN(N)C1CCCc2ccccc21 (stereo not drawn) [Compound No. 48, 1-[1-Oxo-2-(1-tetralinyl)hydrazino]ethyl-2-cyanopyrrolidine trifluoroacetate]
44 ± 1.92 µM	N#CC1CCCN1CC(=O)NN(CC(=O)N1CCCC1C#N)C1CCCCC1 (stereo not drawn) [Compound No. 45, 1-[1-Oxo-2-[(1-cyclohexyl)-2-(2-cyano-1-pyrrolidinoacetyl)]hydrazino]ethyl-2-cyanopyrrolidine trifluoroacetate]
38.2 ± 2.56 µM	N#CC1CSCN1C(=O)CN(N)C(=O)N1CCOCC1 (stereo not drawn) [Compound No. 43, 3-[1-Oxo-2-(1-(4-morpholinocarbonyl) hydrazino)ethyl]-4-cyanothiazolidine trifluoroacetate]
0.53 ± 0.09 µM	CCNN(CC(=O)N1CSCC1C#N)C1CCC(C)CC1 (stereo not drawn) [Compound No. 42, 3-[1-Oxo-2-(1-(4-methylcyclohexyl)-2-ethyl)hydrazino]ethyl-4-cyanothiazolidine trifluoroacetate]
17.1 ± 0.3 µM	CN(CC(=O)N1CSCC1C#N)NC1CCN(Cc2ccc(C#N)cc2)CC1 (stereo not drawn) [Compound No. 58, 3-[1-Oxo-2-[1-methyl-2-(1-(4-cyanophenylmethyl)piperidin-4-yl)]hydrazino]ethyl-4-cyanothiazolidine bis trifluoroacetate]
0.67 ± 0.06 µM	N#CC1CSCN1C(=O)CN(N)C1CCN(c2ccc(C(F)(F)F)cn2)CC1 (stereo not drawn) [Compound No. 77, 3-[1-Oxo-2-(1-(1-(5-trifluoromethyl-2-pyridinyl)-piperidin-4-yl) hydrazino)]ethyl-4-cyano thiazolidine bis trifluoroacetate]
0.34 ± 0.07 µM	CCCC1CCC(N(N)CC(=O)N2CSCC2C#N)CC1 (stereo not drawn) [Compound No. 64, 3-[1-Oxo-2-(1-(4-npropylcyclohexyl)hydrazino)]ethyl-4-cyanothiazolidine trifluoroacetate]
0.362 ± 0.06 µM	CCOC(=O)Cc1csc(NC(=O)CN2CCC(N(N)CC(=O)N3CSCC3C#N)CC2)n1 (stereo not drawn) [compound 129, 3-[1-oxo-2-(1-(1-(2-oxo-2-(4-ethoxycarbonylmethylthiazole-2-yl)aminoethyl)piperidine-4-yl)) hydrazino]ethyl-4-cyanothiazolidine, tris-trifluoroacetate]
0.21 ± 0.004 µM	N#CC1CSCN1C(=O)CN(N)C1CCN(CC(=O)Nc2ccccn2)CC1 (stereo not drawn) [compound 136, 3-[1-oxo-2-(1-(1-(2-oxo-2-(pyridin-2-yl)aminoethyl)piperidine-4-yl))hydrazino]ethyl-4-cyanothiazolidine, tris-trifluoroacetate]
0.468 ± 0.005 µM	CC(C)OCCCNC(=O)CN1CCC(N(N)CC(=O)N2CSCC2C#N)CC1 (stereo not drawn) [compound 126]
4.15 ± 0.29 µM	CC(C)(C)C(=O)N1CCC(N(N)CC(=O)N2CSCC2C#N)CC1 (stereo not drawn) [Compound No. 76, 3-[1-Oxo-2-(1-(1-(tert-butylcarbonyl)-piperidin-4-yl) hydrazino)]ethyl-4-cyanothiazolidine trifluoroacetate]
0.715 ± 0.06 µM	Cc1nc(NC(=O)CN2CCC(N(N)CC(=O)N3CSCC3C#N)CC2)sc1C (stereo not drawn) [compound 145, trihydrochloride]
82 ± 18 µM	N#CC1CSCN1C(=O)CN1CCCCN1 (stereo not drawn) [Compound No. 83]
1.77 ± 0.167 µM	N#CC1CSCN1C(=O)CN(N)C1CCN(CCC(=O)NC2CC2)CC1 (stereo not drawn) [compound 132]
1.04 ± 0.25 µM	CC(C)(C)C1CCC(N(N)CC(=O)N2CSCC2C#N)CC1 (stereo not drawn) [Compound No. 49, 3-[1-Oxo-2-(1-(4-tertbutylcyclohexyl)hydrazino)]ethyl-4-cyanothiazolidine trifluoroacetate]
16.7 ± 2.07 µM	CC1CCC(N(CC(=O)N2CSCC2C#N)NC2CCN(Cc3cccnc3)CC2)CC1 (stereo not drawn) [Compound No. 53, 3-[1-Oxo-2-[1-(4-methylcyclohexyl)-2-(1-(3-pyridinylmethyl)-4-piperidinyl)]hydrazino]ethyl-4-cyanothiazolidine]
1.53 ± 0.01 µM	CC(=O)N1CCC(N(N)CC(=O)N2CSCC2C#N)CC1 (stereo not drawn) [Compound No. 66, 3-[1-Oxo-2-(1-(1-acetyl)-piperidin-4-yl)hydrazino]ethyl-4-cyanothiazolidine trifluoroacetate]
0.563 ± 0.077 µM	N#CC1CSCN1C(=O)CN(N)C1CCC(NCC(=O)Nc2ccc(Cl)cn2)CC1 (stereo not drawn) [Compound No. 111, 3-[1-oxo-2-[1-(4-(2-oxo-2-(5-chloropyridin-2-yl)aminoethyl)aminocyclohex-1-yl)]hydrazino]ethyl-4-cyanothiazolidine tris-trifluoroacetate]
0.7 ± 0.03 µM	N#CC1CSCN1C(=O)CN(N)C1CCN(Cc2ccc([N+](=O)[O-])cc2)CC1 (stereo not drawn) [Compound No. 61, 3-[1-Oxo-2-(1-(1-(4-nitrophenylmethyl)-piperidin-4-yl) hydrazino]ethyl-4-cyanothiazolidine trifluoroacetate]
0.83 ± 0.05 µM	N#CC1CSCN1C(=O)CN(N)C1CCN(C(=O)CN2CCOCC2)CC1 (stereo not drawn) [Compound No. 110, 3-[1-oxo-2-[1-(1-(1-oxo-2-(morpholin-4-yl)ethyl)piperidin-4-yl)]hydrazino]ethyl-4-cyanothiazolidine bis-trifluoroacetate]
30.3 ± 5.5 µM	N#CC1CCCN1C(=O)CNNC1CCCCC1 (stereo not drawn) [Compound No. 34, 1-[1-Oxo-2-(2-cyclohexyl) hydrazino] ethyl-2-cyanopyrrolidine trifluoroacetate]
0.51 ± 0.05 µM	N#CC1CSCN1C(=O)CN(N)C1CCN(CC(=O)NCc2ccccc2F)CC1 (stereo not drawn) [compound 122, 3-[1-oxo-2-(1-(1-(2-oxo-2-(2-flurobenzyl)aminoethyl)piperidine-4-yl))hydrazino]ethyl-4-cyanothiazolidine, bis-trifluoroacetate]
1.47 ± 0.07 µM	N#Cc1ccc(NC(=O)CNC2CCC(N(N)CC(=O)N3CSCC3C#N)CC2)cc1 (stereo not drawn) [Compound No. 112, 3-[1-oxo-2-[1-(4-(2-oxo-2-(4-cyanophenyl)aminoethyl)aminocyclohex-1-yl)]hydrazino]ethyl-4-cyanothiazolidine bis-trifluoroacetate]

SMILES	IC50
N#CC1CCCN1C(=O)CN(N)c1ccccc1 (stereo not drawn) [Compound No. 3, 1-[1-Oxo-2-((1-phenyl)-hydrazino)] ethyl-2-cyano pyrrolidine trifluoroacetate]	34.1 ± 4.57 µM
CC(C)N(N)CC(=O)N1CCCC1C#N (stereo not drawn) [Compound No. 41, 1-[1-Oxo-2-isopropyl-2-hydrazino]ethyl-2-cyano pyrrolidine trifluoroacetate]	48.3 ± 1.75 µM
N#CC1CSCN1CC(=O)NN(CC(=O)N1CCCC1C#N)C1CCCCC1 (stereo not drawn) [Compound No. 50]	60.1 ± 5.5 µM
CCN(N)CC(=O)N1CCCC1C#N (stereo not drawn) [Compound No. 14, 1-[1-Oxo-2-((1-ethyl)hydrazino)]ethyl-2-cyano pyrrolidine trifluoroacetate]	93.7 ± 5.54 µM
CC(C)N(N)CC(=O)N1CCCC1C#N (stereo not drawn) [Compound No. 12, 1-[1-Oxo-2-((1-(1-methyl)ethyl)hydrazino)]ethyl-2-cyano pyrrolidine trifluoroacetate]	61.3 ± 4.55 µM
CCC(C)N(N)CC(=O)N1CCCC1C#N (stereo not drawn) [Compound No. 22, 1-[1-Oxo-2-((1-methylpropyl)hydrazino)]ethyl-2-cyano pyrrolidine trifluoroacetate]	76.5 ± 7.51 µM
N#Cc1cc(CN2CCC(N(N)CC(=O)N3CSCC3C#N)CC2)ccc1-c1ccccc1 (stereo not drawn) [Compound No. 109, 3-[1-oxo-2-[1-(1-(2-cyanobiphenyl-4-yl)methyl)piperidine-4-yl]hydrazino]ethyl-4-cyanothiazolidine bis-trifluoroacetate]	1.02 ± 0.14 µM

Same assay, conditions: Porcine DPP-IV, Gly-Pro-pNA substrate, 30° C.; mean ± SD of three experiments except compound Nos. 133 & 139; trihydrochloride; read-out: IC50 (μM) Mean ± SD, inhibitory activity on DPP-IV enzyme activity

SMILES	IC50
N#CC1CSCN1C(=O)CN(N)C1CCN(CC(=O)Nc2nc3ccccc3s2)CC1 (stereo not drawn) [compound 144, 3-[1-oxo-2-(1-(1-(2-oxo-2-(benzothiazole-2-yl)aminoethyl)piperidine-4-yl)) hydrazine]ethyl-4-cyanothiazolidine, trihydrochloride]	0.167 ± 0.007 µM
